For 29 compounds, IC50 results are on record in patent US8501936B2 (priority 2009, dated 2013).

pIC50: −log10 of the molar value.

By pIC50 is commonly meant −log10 of the IC50, conventionally taken in molar units.

One assay addresses human JAK2 (Homo sapiens (Human), UniProt O60674). Particulars: read-out: JAK2 IC50.
The target in the next assay is human FAK (Homo sapiens (Human), UniProt Q05397). Conditions: read-out: FAK IC50.
Chain of human FAK (Q05397 whole entry): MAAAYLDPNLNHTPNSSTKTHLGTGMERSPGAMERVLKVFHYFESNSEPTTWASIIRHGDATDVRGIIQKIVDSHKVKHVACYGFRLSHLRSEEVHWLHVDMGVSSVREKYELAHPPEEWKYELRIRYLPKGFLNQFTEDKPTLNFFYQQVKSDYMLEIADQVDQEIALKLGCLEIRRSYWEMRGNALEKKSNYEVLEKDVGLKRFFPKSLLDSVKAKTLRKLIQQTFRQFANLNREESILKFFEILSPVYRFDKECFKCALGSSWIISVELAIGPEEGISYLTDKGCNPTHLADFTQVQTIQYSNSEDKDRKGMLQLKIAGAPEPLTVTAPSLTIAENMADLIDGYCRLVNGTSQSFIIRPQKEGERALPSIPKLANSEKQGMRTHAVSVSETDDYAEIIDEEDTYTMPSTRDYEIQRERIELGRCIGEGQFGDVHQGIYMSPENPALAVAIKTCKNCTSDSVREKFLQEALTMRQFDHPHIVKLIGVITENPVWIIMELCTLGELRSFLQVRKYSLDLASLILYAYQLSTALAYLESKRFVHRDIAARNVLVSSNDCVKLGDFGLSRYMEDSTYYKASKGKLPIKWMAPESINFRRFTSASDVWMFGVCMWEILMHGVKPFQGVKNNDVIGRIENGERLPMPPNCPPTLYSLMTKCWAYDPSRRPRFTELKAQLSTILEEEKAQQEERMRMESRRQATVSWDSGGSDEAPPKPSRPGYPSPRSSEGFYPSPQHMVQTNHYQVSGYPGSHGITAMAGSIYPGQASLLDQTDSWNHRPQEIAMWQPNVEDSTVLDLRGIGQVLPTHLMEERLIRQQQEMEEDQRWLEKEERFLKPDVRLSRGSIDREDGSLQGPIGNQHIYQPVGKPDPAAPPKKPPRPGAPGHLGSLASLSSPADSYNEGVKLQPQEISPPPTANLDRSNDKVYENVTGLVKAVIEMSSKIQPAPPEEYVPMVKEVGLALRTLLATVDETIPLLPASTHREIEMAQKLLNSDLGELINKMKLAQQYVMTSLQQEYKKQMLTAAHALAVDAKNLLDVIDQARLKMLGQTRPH

Chain of human JAK2 (O60674 815-1132): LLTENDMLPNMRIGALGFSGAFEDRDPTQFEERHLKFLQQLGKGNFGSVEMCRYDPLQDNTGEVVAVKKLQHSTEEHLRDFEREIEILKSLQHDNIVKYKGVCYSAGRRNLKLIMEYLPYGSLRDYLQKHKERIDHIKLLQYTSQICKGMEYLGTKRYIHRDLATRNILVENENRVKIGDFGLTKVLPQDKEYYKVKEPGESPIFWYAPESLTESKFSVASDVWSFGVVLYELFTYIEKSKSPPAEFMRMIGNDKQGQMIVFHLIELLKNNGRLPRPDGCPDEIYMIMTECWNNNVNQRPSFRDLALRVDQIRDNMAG
Method for human FAK: The ability of compounds to inhibit the kinase activity of baculovirus-expressed human FAK and PYK2 was measured using the 96-well plate TRF assay system described above for JAK2. […] For the FAK kinase assay, the reaction mixture (total volume=100 μL/well) contained 20 mM HEPES (pH 7.2), 10 μM ATP, 5 mM MgCl2, 0.5 mM DTT, 0.1% BSA, and test compound (diluted in DMSO; 2.5% DMSO final in assay). For PYK2, the 100 μL assay solution consisted of 20 mM HEPES (pH 7.2), 3 μM ATP, 5 mM MnCl2, 0.1% BSA, and test compound (diluted in DMSO; 2.5% DMSO final in assay). Enzyme (10 ng/mL FAK or 25 ng/mL PYK2) was added and the reaction was allowed to proceed at room temperature for 30 min. Detection of the phosphorylated product was performed by adding 100 μL/well of Eu—N1 labeled PY100 antibody diluted 1:75000 in 0.25% BSA in TBS-T (PerkinElmer #AD0041). […] Inhibition data were analyzed using ActivityBase and IC50 curves generated using XLFit.

Take `CS(=O)(=O)c1ccc(-c2cccn3nc(Nc4ccc(OCCN5CCOCC5)cc4)nc23)cc1` [Example 26, [8-(4-Methanesulfonyl-phenyl)-[1,2,4]triazolo[1,5-a]pyridin-2-yl]-[4-(2-morpholin-4-yl-ethoxy)-phenyl]-amine]: the pIC50 was 8.89 on human JAK2 and 6.23 on human FAK.

`CS(=O)(=O)c1ccc(-c2cccn3nc(Nc4cccc(N5CCOCC5)c4)nc23)cc1` [Example 27, [8-(4-Methanesulfonyl-phenyl)-[1,2,4]triazolo[1,5-a]pyridin-2-yl]-(3-morpholin-4-yl-phenyl)-amine]: the pIC50 is 9.40 at human JAK2 and 5.69 on human FAK.

Take `CS(=O)(=O)c1cccc(-c2cccn3nc(Nc4cccc(N5CCOCC5)c4)nc23)c1` [Example 29, [8-(3-Methanesulfonyl-phenyl)-[1,2,4]triazolo[1,5-a]pyridin-2-yl]-(3-morpholin-4-yl-phenyl)-amine]: the pIC50 on human JAK2 was 8.25; on human FAK, 5.87.

With `CN1CCN(c2ccc(Nc3nc4c(-c5ccc(S(C)(=O)=O)cc5)cccn4n3)cc2)CC1` [Example 32, [8-(4-Methanesulfonyl-phenyl)-[1,2,4]triazolo[1,5-a]pyridin-2-yl]-[4-(4-methyl-piperazin-1-yl)-phenyl]-amine], the values for the negative logarithm of the IC50 (pIC50) on human JAK2 and on human FAK were 8.62 and 6.39, respectively.

On to `CN1CCN(c2cccc(Nc3nc4c(-c5ccc(S(C)(=O)=O)cc5)cccn4n3)c2)CC1` [Example 35, [8-(4-Methanesulfonyl-phenyl)-[1,2,4]triazolo[1,5-a]pyridin-2-yl]-[3-(4-methyl-piperazin-1-yl)-phenyl]-amine], for which the pIC50 on human JAK2 was 8.89; on human FAK it was 5.98.

Turning to `COc1ccc(Nc2nc3c(Nc4ccc(S(C)(=O)=O)cc4)cccn3n2)cc1` [Example 38, N(8)-(4-Methanesulfonyl-phenyl)-N(2)-(4-methoxy-phenyl)-[1,2,4]triazolo[1,5-a]pyridine-2,8-diamine], the pIC50 is 6.33 at human JAK2 and 5.00 on human FAK.

Turning to `COc1ccc(Nc2nc3c(-c4cn[nH]c4)cccn3n2)cc1` [Example 39, (4-Methoxy-phenyl)-[8-(1H-pyrazol-4-yl)-[1,2,4]triazolo[1,5-a]pyridin-2-yl]-amine], the pIC50 on human JAK2 is 7.49; on human FAK it was 5.63.

In the case of `COc1cccc(Nc2nc3c(-c4ccc(S(C)(=O)=O)cc4)cccn3n2)c1` [Example 40, [8-(4-Methanesulfonyl-phenyl)-[1,2,4]triazolo[1,5-a]pyridin-2-yl]-(3-methoxy-phenyl)-amine], the pIC50 at human JAK2 was 9.00; at human FAK it was 5.87.

Regarding `COc1ccc(Nc2nc3c(-c4cnn(S(C)(=O)=O)c4)cccn3n2)cc1` [Example 42, [8-(1-Methanesulfonyl-1H-pyrazol-4-yl)-[1,2,4]triazolo[1,5-a]pyridin-2-yl]-(4-methoxy-phenyl)-amine], the values for the pIC50 at human JAK2 and on human FAK were 8.52 and 6.29, respectively.

Consider `CS(=O)(=O)c1ccc(-c2cccn3nc(Nc4ccc(CN5CCOCC5)cc4)nc23)cc1` [Example 43, [8-(4-Methanesulfonyl-phenyl)-[1,2,4]triazolo[1,5-a]pyridin-2-yl]-(4-morpholin-4-ylmethyl-phenyl)-amine], for which the pIC50 on human JAK2 was 8.66; at human FAK, 5.93.

As for `CN1CCN(Cc2ccc(Nc3nc4c(-c5ccc(S(C)(=O)=O)cc5)cccn4n3)cc2)CC1` [Example 44, [8-(4-Methanesulfonyl-phenyl)-[1,2,4]triazolo[1,5-a]pyridin-2-yl]-[4-(4-methyl-piperazin-1-ylmethyl)-phenyl]-amine], the negative logarithm of the IC50 (pIC50) on human JAK2 was 8.62; on human FAK, 5.95.

Take `CS(=O)(=O)c1ccc(-c2cccn3nc(Nc4cccc(CN5CCOCC5)c4)nc23)cc1` [Example 46, [8-(4-Methanesulfonyl-phenyl)-[1,2,4]triazolo[1,5-a]pyridin-2-yl]-(3-morpholin-4-ylmethyl-phenyl)-amine]: the values for the pIC50 on human JAK2 and at human FAK were 9.22 and 6.02, respectively.

In the case of `COc1ccc(Nc2nc3c(Nc4ccccc4S(C)(=O)=O)cccn3n2)cc1` [Example 47, N(8)-(2-Methanesulfonyl-phenyl)-N(2)-(4-methoxy-phenyl)-[1,2,4]triazolo[1,5-a]pyridine-2,8-diamine], the pIC50 is 7.89 at human JAK2 and 5.52 on human FAK.

As to `CN1CCN(c2ccc(Nc3nc4c(-c5ccc(CS(C)(=O)=O)cc5)cccn4n3)cc2)CC1` [Example 48, [8-(4-Methanesulfonylmethyl-phenyl)-[1,2,4]triazolo[1,5-a]pyridin-2-yl]-[4-(4-methyl-piperazin-1-yl)-phenyl]-amine], the pIC50 at human JAK2 is 9.15; at human FAK it was 5.76.

For `CN1CCN(C2CCN(c3ccc(Nc4nc5c(-c6ccc(S(C)(=O)=O)cc6)cccn5n4)cc3)CC2)CC1` [Example 51, [8-(4-Methanesulfonyl-phenyl)-[1,2,4]triazolo[1,5-a]pyridin-2-yl]-{4-[4-(4-methyl-piperazin-1-yl)-piperidin-1-yl]-phenyl}-amine], the negative logarithm of the IC50 (pIC50) at human JAK2 is 8.74; at human FAK, 6.77.

As to `CC(C)S(=O)(=O)c1ccc(-c2cccn3nc(Nc4ccc(N5CCN(C)CC5)cc4)nc23)cc1` [Example 52, [4-(4-Methyl-piperazin-1-yl)-phenyl]-{8-[4-(propane-2-sulfonyl)-phenyl]-[1,2,4]triazolo[1,5-a]pyridin-2-yl}-amine], the pIC50 at human JAK2 was 8.68; on human FAK, 6.51.

On to `CC(C)S(=O)(=O)c1ccc(-c2cccn3nc(Nc4cccc(N5CCN(C)CC5)c4)nc23)cc1` [Example 53, [3-(4-Methyl-piperazin-1-yl)-phenyl]-{8-[4-(propane-2-sulfonyl)-phenyl]-[1,2,4]triazolo[1,5-a]pyridin-2-yl}-amine], for which the figures for the pIC50 on human JAK2 and on human FAK were 8.89 and 6.06, respectively.

With `COc1ccccc1-c1cccn2nc(Nc3ccc(N4CCN(C)CC4)cc3)nc12` [Example 55, [8-(2-Methoxy-phenyl)-[1,2,4]triazolo[1,5-a]pyridin-2-yl]-[4-(4-methyl-piperazin-1-yl)-phenyl]-amine], the pIC50 on human JAK2 was 7.42; at human FAK, 5.52.

In the case of `COc1ccccc1-c1cccn2nc(Nc3cccc(N4CCN(C)CC4)c3)nc12` [Example 56, [8-(2-Methoxy-phenyl)-[1,2,4]triazolo[1,5-a]pyridin-2-yl]-[3-(4-methyl-piperazin-1-yl)-phenyl]-amine], the pIC50 at human JAK2 was 7.57; at human FAK it was 5.52.

`CN1CCN(C2CCN(c3cccc(Nc4nc5c(-c6ccc(S(C)(=O)=O)cc6)cccn5n4)c3)CC2)CC1` [Example 58, [8-(4-Methanesulfonyl-phenyl)-[1,2,4]triazolo[1,5-a]pyridin-2-yl]-{3-[4-(4-methyl-piperazin-1-yl)-piperidin-1-yl]-phenyl}-amine]: the values for the pIC50 at human JAK2 and at human FAK were 8.82 and 5.62, respectively.

Consider `CN1CCN(c2ccc(Nc3nc4c(-c5cccc(S(C)(=O)=O)c5)cccn4n3)cc2)CC1` [Example 59, [8-(3-Methanesulfonyl-phenyl)-[1,2,4]triazolo[1,5-a]pyridin-2-yl]-[4-(4-methyl-piperazin-1-yl)-phenyl]-amine], for which the pIC50 on human JAK2 is 8.48; at human FAK, 5.59.

In the case of `CN1CCN(c2cccc(Nc3nc4c(-c5cccc(S(C)(=O)=O)c5)cccn4n3)c2)CC1` [Example 60, [8-(3-Methanesulfonyl-phenyl)-[1,2,4]triazolo[1,5-a]pyridin-2-yl]-[3-(4-methyl-piperazin-1-yl)-phenyl]-amine], the pIC50 was 8.19 on human JAK2 and 5.90 on human FAK.

As to `CN1CCC(c2cccc(Nc3nc4c(-c5ccc(S(C)(=O)=O)cc5)cccn4n3)c2)CC1` [Example 61, [8-(4-Methanesulfonyl-phenyl)-[1,2,4]triazolo[1,5-a]pyridin-2-yl]-[3-(1-methyl-piperidin-4-yl)-phenyl]-amine], the pIC50 at human JAK2 is 9.15; on human FAK, 6.58.

For the compound `CN1CCN(c2ccc(Nc3nc4c(-c5ccc(N(C)S(C)(=O)=O)cc5)cccn4n3)cc2)CC1` [Example 62, N-Methyl-N-(4-{2-[4-(4-methyl-piperazin-1-yl)-phenylamino]-[1,2,4]triazolo[1,5-a]pyridin-8-yl}-phenyl)-methanesulfonamide], the pIC50 on human JAK2 was 9.22; at human FAK, 6.00.

On to `CN1CCN(c2cccc(Nc3nc4c(-c5ccc(N(C)S(C)(=O)=O)cc5)cccn4n3)c2)CC1` [Example 63, N-Methyl-N-(4-{2-[3-(4-methyl-piperazin-1-yl)-phenylamino]-[1,2,4]triazolo[1,5-a]pyridin-8-yl}-phenyl)-methanesulfonamide], for which the pIC50 at human JAK2 is 9.22; on human FAK, 5.87.

Regarding `CN1CCN(c2ccc(Nc3nc4c(-c5ccc(C(F)(F)F)cc5)cccn4n3)cc2)CC1` [Example 64, [4-(4-Methyl-piperazin-1-yl)-phenyl]-[8-(4-trifluoromethyl-phenyl)-[1,2,4]triazolo[1,5-a]pyridin-2-yl]-amine], the results for the pIC50 on human JAK2 and at human FAK were 8.51 and 5.90, respectively.

As to `CN1CCN(c2ccc(Nc3nc4c(-c5ccccc5S(C)(=O)=O)cccn4n3)cc2)CC1` [Example 66, [8-(2-Methanesulfonyl-phenyl)-[1,2,4]triazolo[1,5-a]pyridin-2-yl]-[4-(4-methyl-piperazin-1-yl)-phenyl]-amine], the pIC50 was 5.88 at human JAK2 and 5.00 at human FAK.

Turning to `CN1CCN(c2ccc(Nc3nc4cccc(-c5ccc(CN6CCS(=O)(=O)CC6)cc5)n4n3)cc2)CC1` [Example 70, 5-{4-[(1,1-dioxidothiomorpholin-4-yl)methyl]phenyl}-N-[4-(4-methylpiperazin-1-yl)phenyl][1,2,4]triazolo[1,5-a]pyridin-2-amine], the negative logarithm of the IC50 (pIC50) on human JAK2 is 8.96; at human FAK, 6.54.

For `CN1CCN(c2cccc(Nc3nc4cccc(-c5ccc(CN6CCS(=O)(=O)CC6)cc5)n4n3)c2)CC1` [Example 71, 5-{4-[(1,1-dioxidothiomorpholin-4-yl)methyl]phenyl}-N-[3-(4-methylpiperazin-1-yl)phenyl][1,2,4]triazolo[1,5-a]pyridin-2-amine], the pIC50 on human JAK2 was 9.10; on human FAK, 6.30.
